Common to all, as to test: Glasshouse assay for herbicidal activity (pre- and post-emergence), percentage phytotoxicity
Holding throughout (assay type): in vivo

Experiment [1] relates to Alopecurus myosuroides (ALOMY). The following applies: Alopecurus myosuroides, Rate 250 g/ha, 100%=total damage, 0%=no damage. In a few lines:
(§1)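 Visual phytotoxicity score, 0% = undamaged to 100% = total kill, read 20 days after treatment for PRE and 15 days for POST. Pots of standard soil; treatment at day 1 (PRE) or roughly day 12 (POST). Glasshouse: 16 h photoperiod, 65% RH, 24/18 or 20/16 °C by climate type.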

For a further experiment, the system named is Avena fatua (AVEFA). The following applies: Avena fatua, Rate 250 g/ha, 100%=total damage, 0%=no damage. In outline: as §1
For experiment [2], the system named is Echinochloa crus-galli (ECHCG). The following applies: Echinochloa crus-galli, Rate 250 g/ha, 100%=total damage, 0%=no damage. In a few lines:
as §1

The test system of another experiment is Lolium perenne (LOLPE). The note with it: Lolium perenne, Rate 250 g/ha, 100%=total damage, 0%=no damage. In a few lines:
as §1

Where [3] appears, read: post-emergence, 360 h, post-emergence, visual assessment 15 DAA, read-out: Post-emergence herbicidal activity (percentage phytotoxicity) ALOMY POST.
The mark [4] stands for this setting: pre-emergence, 480 h, pre-emergence, visual assessment 20 DAA, read-out: Pre-emergence herbicidal activity (percentage phytotoxicity) ALOMY PRE.
[5] abbreviates: post-emergence, 360 h, post-emergence, visual assessment 15 DAA, read-out: Post-emergence herbicidal activity (percentage phytotoxicity) AVEFA POST.
The mark [6] stands for this setting: pre-emergence, 480 h, pre-emergence, visual assessment 20 DAA, read-out: Pre-emergence herbicidal activity (percentage phytotoxicity) AVEFA PRE.
[7] abbreviates: post-emergence, 360 h, post-emergence, visual assessment 15 DAA, read-out: Post-emergence herbicidal activity (percentage phytotoxicity) ECHCG POST.
Setting [8] is: pre-emergence, 480 h, pre-emergence, visual assessment 20 DAA, read-out: Pre-emergence herbicidal activity (percentage phytotoxicity) ECHCG PRE.
The mark [9] stands for this setting: post-emergence, 360 h, post-emergence, visual assessment 15 DAA, read-out: Post-emergence herbicidal activity (percentage phytotoxicity) LOLPE POST.
The mark [10] stands for this setting: pre-emergence, 480 h, pre-emergence, visual assessment 20 DAA, read-out: Pre-emergence herbicidal activity (percentage phytotoxicity) LOLPE PRE.

Where two headings read alike, the source gives them in different places.

The results in this text go back to patent publication US10206394B2, “Herbicidal compounds” (Syngenta Participations AG, priority 2014, dated 2019).

Regarding `C#CC(C)(C)NC(=O)CC1CC(=O)C(c2c(C)cc(-c3ccc(F)cn3)cc2C)C1=O` (stereo not shown) [Compound B388], the pest or weed control at 250 g/ha in experiment [1] (setting [3]) is 90%; in experiment [1] (setting [4]), 90%; with Avena fatua (AVEFA) (setting [5]), 100%; in the experiment with Avena fatua (AVEFA) (setting [6]), 90%; in experiment [2] (setting [7]), 100%; in experiment [2] (setting [8]), 100%. Also, the pest or weed control at 250 g/ha with Lolium perenne (LOLPE) (setting [9]) and in the experiment on Lolium perenne (LOLPE) (setting [10]) was 90% throughout.

Turning to `COCC(C)(C)NC(=O)CC1CC(=O)C(c2c(C)cc(-c3ccc(F)cn3)cc2C)C1=O` (stereo not shown) [Compound B389], the pest or weed control at 250 g/ha in experiment [1] (setting [3]) worked out at 100%; in experiment [1] (setting [4]), 90%; in the experiment with Avena fatua (AVEFA) (setting [5]), 100%; with Avena fatua (AVEFA) (setting [6]), 90%; in experiment [2] (setting [7]), 100%; in experiment [2] (setting [8]), 100%. For the same compound, the pest or weed control at 250 g/ha in the experiment on Lolium perenne (LOLPE) (setting [9]) turned out to be 90%; with Lolium perenne (LOLPE) (setting [10]) it was 100%.

As for `C=CC(C)NC(=O)CC1CC(=O)C(c2c(C)cc(-c3ccc(F)cn3)cc2C)C1=O` (stereo not shown) [Compound B390], the pest or weed control at 250 g/ha came to 100% in experiment [1] (setting [3]); 100% in experiment [1] (setting [4]); 100% in the experiment with Avena fatua (AVEFA) (setting [5]); 100% in the experiment with Avena fatua (AVEFA) (setting [6]); 90% in experiment [2] (setting [7]); 100% in experiment [2] (setting [8]). Further, the figures for the pest or weed control at 250 g/ha in the experiment on Lolium perenne (LOLPE) (setting [9]) and in the experiment with Lolium perenne (LOLPE) (setting [10]) were 90% and 100%, respectively.

Consider `COCC(C)NC(=O)CC1CC(=O)C(c2c(C)cc(-c3ccc(F)cn3)cc2C)C1=O` (stereo not shown) [Compound B391], for which the pest or weed control at 250 g/ha stood at 90% in experiment [1] (setting [3]); 90% in experiment [1] (setting [4]); 100% with Avena fatua (AVEFA) (setting [5]); 100% in the experiment on Avena fatua (AVEFA) (setting [6]); 100% in experiment [2] (setting [7]); 100% in experiment [2] (setting [8]). In addition, the pest or weed control at 250 g/ha with Lolium perenne (LOLPE) (setting [9]) amounted to 90%; in the experiment with Lolium perenne (LOLPE) (setting [10]), 100%.

Take `CCN(C)C(=O)CC1CC(=O)C(c2c(C)cc(-c3ccc(F)cn3)cc2C)C1=O` (stereo not shown) [Compound B392]: the pest or weed control at 250 g/ha in experiment [1] (setting [3]) worked out at 90%; in experiment [1] (setting [4]) it was 100%; in the experiment with Avena fatua (AVEFA) (setting [5]), 100%; in the experiment with Avena fatua (AVEFA) (setting [6]), 100%; in experiment [2] (setting [7]), 100%; in experiment [2] (setting [8]), 100%. For the same compound, the pest or weed control at 250 g/ha is 90% with Lolium perenne (LOLPE) (setting [9]) and 100% in the experiment with Lolium perenne (LOLPE) (setting [10]).

`Cc1cc(-c2ccc(F)cn2)cc(C)c1C1C(=O)CC(CC(=O)N(C)C(C)(C)C)C1=O` (stereo not shown) [Compound B393]: the pest or weed control at 250 g/ha was found to be 90% in experiment [1] (setting [3]); 100% in experiment [1] (setting [4]); 100% in the experiment with Avena fatua (AVEFA) (setting [5]); 90% with Avena fatua (AVEFA) (setting [6]); 100% in experiment [2] (setting [7]); 100% in experiment [2] (setting [8]). Moreover, the pest or weed control at 250 g/ha is 90% with Lolium perenne (LOLPE) (setting [9]) and 100% in the experiment with Lolium perenne (LOLPE) (setting [10]).

With `C#CCN(C)C(=O)CC1CC(=O)C(c2c(C)cc(-c3ccc(F)cn3)cc2C)C1=O` (stereo not shown) [Compound B394], the pest or weed control at 250 g/ha (in experiment [1] (setting [3]); in experiment [1] (setting [4]); with Avena fatua (AVEFA) (setting [5]); in the experiment on Avena fatua (AVEFA) (setting [6]); in experiment [2] (setting [7]); in experiment [2] (setting [8])) was 100% in each case. The pest or weed control at 250 g/ha with Lolium perenne (LOLPE) (setting [9]) came out at 90%; in the experiment with Lolium perenne (LOLPE) (setting [10]), 100%.

On to `C=CCNC(=O)CC1CC(=O)C(c2c(C)cc(-c3ccc(F)cn3)cc2C)C1=O` (stereo not shown) [Compound B395], for which the pest or weed control at 250 g/ha (in experiment [1] (setting [3]); in experiment [1] (setting [4]); in the experiment on Avena fatua (AVEFA) (setting [5]); with Avena fatua (AVEFA) (setting [6]); in experiment [2] (setting [7]); in experiment [2] (setting [8])) was 100% each time. Besides, the pest or weed control at 250 g/ha in the experiment with Lolium perenne (LOLPE) (setting [9]) came to 90%; with Lolium perenne (LOLPE) (setting [10]) it was 100%.

In the case of `Cc1cc(-c2ccc(F)cn2)cc(C)c1C1C(=O)CC(CC(=O)N(C)C(C)C)C1=O` (stereo not shown) [Compound B396], the pest or weed control at 250 g/ha in experiment [1] (setting [3]) amounted to 90%; in experiment [1] (setting [4]) it was 100%; with Avena fatua (AVEFA) (setting [5]) it was 100%; with Avena fatua (AVEFA) (setting [6]), 100%; in experiment [2] (setting [7]), 100%; in experiment [2] (setting [8]), 100%. Further, the pest or weed control at 250 g/ha with Lolium perenne (LOLPE) (setting [9]) was found to be 90%; in the experiment on Lolium perenne (LOLPE) (setting [10]) it was 100%.

On to `Cc1cc(-c2ccc(F)cn2)cc(C)c1C1C(=O)CC(CC(=O)NCc2cccs2)C1=O` (stereo not shown) [Compound B397], for which the pest or weed control at 250 g/ha in experiment [1] (setting [3]) stood at 90%; in experiment [1] (setting [4]), 70%; in the experiment with Avena fatua (AVEFA) (setting [5]), 90%; with Avena fatua (AVEFA) (setting [6]), 80%; in experiment [2] (setting [7]) it was 100%; in experiment [2] (setting [8]), 100%. For the same compound, the pest or weed control at 250 g/ha with Lolium perenne (LOLPE) (setting [9]) was determined as 90%; in the experiment on Lolium perenne (LOLPE) (setting [10]) it was 70%.

As for `Cc1ccc(CNC(=O)CC2CC(=O)C(c3c(C)cc(-c4ccc(F)cn4)cc3C)C2=O)cc1` (stereo not shown) [Compound B398], the pest or weed control at 250 g/ha in experiment [1] (setting [3]) was determined as 80%; in experiment [1] (setting [4]), 50%; in the experiment on Avena fatua (AVEFA) (setting [5]) it was 80%; in the experiment with Avena fatua (AVEFA) (setting [6]), 40%; in experiment [2] (setting [7]), 100%; in experiment [2] (setting [8]), 70%. The pest or weed control at 250 g/ha was 90% in the experiment on Lolium perenne (LOLPE) (setting [9]) and 70% in the experiment with Lolium perenne (LOLPE) (setting [10]).

Take `Cc1cc(-c2ccc(F)cn2)cc(C)c1C1C(=O)CC(CC(=O)NC/C=C/Cl)C1=O` (stereo not shown) [Compound B400]: the pest or weed control at 250 g/ha (in experiment [1] (setting [3]); in experiment [1] (setting [4]); in the experiment on Avena fatua (AVEFA) (setting [5]); in the experiment with Avena fatua (AVEFA) (setting [6]); in experiment [2] (setting [7]); in experiment [2] (setting [8])) was 100% throughout. Also, the pest or weed control at 250 g/ha in the experiment with Lolium perenne (LOLPE) (setting [9]) is 90%; in the experiment on Lolium perenne (LOLPE) (setting [10]), 100%.

For the compound `Cc1cc(-c2ccc(F)cn2)cc(C)c1C1C(=O)CC(CC(=O)NCc2cccc(Cl)c2)C1=O` (stereo not shown) [Compound B401], the pest or weed control at 250 g/ha was determined as 90% in experiment [1] (setting [3]); 80% in experiment [1] (setting [4]); 100% in the experiment on Avena fatua (AVEFA) (setting [5]); 70% in the experiment with Avena fatua (AVEFA) (setting [6]); 100% in experiment [2] (setting [7]); 80% in experiment [2] (setting [8]). Also, the pest or weed control at 250 g/ha in the experiment with Lolium perenne (LOLPE) (setting [9]) and in the experiment with Lolium perenne (LOLPE) (setting [10]) was 90% each time.

With `Cc1cc(-c2ncc(F)cc2F)cc(C)c1C1C(=O)CC(CC(=O)NOCc2ccccc2)C1=O` (stereo not shown) [Compound B402], the pest or weed control at 250 g/ha in experiment [1] (setting [3]) was found to be 90%; in experiment [1] (setting [4]), 60%; in the experiment with Avena fatua (AVEFA) (setting [5]), 100%; with Avena fatua (AVEFA) (setting [6]), 70%; in experiment [2] (setting [7]), 100%; in experiment [2] (setting [8]) it was 80%. Further, the pest or weed control at 250 g/ha in the experiment with Lolium perenne (LOLPE) (setting [9]) was 90%; in the experiment on Lolium perenne (LOLPE) (setting [10]), 80%.

On to `Cc1cc(-c2ncc(F)cc2F)cc(C)c1C1C(=O)CC(CC(=O)NO)C1=O` (stereo not shown) [Compound B403], for which the pest or weed control at 250 g/ha in experiment [1] (setting [3]) stood at 90%; in experiment [1] (setting [4]), 60%; in the experiment on Avena fatua (AVEFA) (setting [5]), 100%; in the experiment with Avena fatua (AVEFA) (setting [6]) it was 50%; in experiment [2] (setting [7]), 100%; in experiment [2] (setting [8]) it was 0%. The figures for the pest or weed control at 250 g/ha in the experiment with Lolium perenne (LOLPE) (setting [9]) and in the experiment on Lolium perenne (LOLPE) (setting [10]) were 80% and 20%, respectively.

As to `C=Cc1cc(-c2ncc(F)cn2)cc(C)c1C1C(=O)CC(CC(=O)NC(C)(C)C)C1=O` (stereo not shown) [Compound B404], the pest or weed control at 250 g/ha is 90% in experiment [1] (setting [3]); 80% in experiment [1] (setting [4]); 100% in the experiment on Avena fatua (AVEFA) (setting [5]); 70% in the experiment with Avena fatua (AVEFA) (setting [6]); 100% in experiment [2] (setting [7]); 90% in experiment [2] (setting [8]). In addition, the pest or weed control at 250 g/ha in the experiment with Lolium perenne (LOLPE) (setting [9]) was 100%; with Lolium perenne (LOLPE) (setting [10]), 80%.

For the compound `Cc1cc(-c2ncc(F)cn2)cc(Cl)c1C1C(=O)CC(CC(=O)NC(C)(C)C)C1=O` (stereo not shown) [Compound B405], the pest or weed control at 250 g/ha was 100% in experiment [1] (setting [3]); 90% in experiment [1] (setting [4]); 100% in the experiment on Avena fatua (AVEFA) (setting [5]); 90% in the experiment with Avena fatua (AVEFA) (setting [6]); 100% in experiment [2] (setting [7]); 100% in experiment [2] (setting [8]). For the same compound, the pest or weed control at 250 g/ha in the experiment with Lolium perenne (LOLPE) (setting [9]) and in the experiment with Lolium perenne (LOLPE) (setting [10]) was 100% in each case.
